Experimental data from the supplement of paper PMC10307832.

How the values were obtained:
Experiment in all cases: relative viability (nuclei count vs DMSO), 5 days (fraction); higher = more cells survive
Kobe2602 + Foretinib = compound: C1=CC(=CC=C1NC(=S)NNC2=C(C=C(C=C2[N+](=O)[O-])C(F)(F)F)[N+](=O)[O-])F [Kobe2602] + COc1cc2c(Oc3ccc(NC(=O)C4(C(=O)Nc5ccc(F)cc5)CC4)cc3F)ccnc2cc1OCCCN1CCOCC1 [Foretinib] (partner 0.25 µM)
Outline: (§1)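 Dosing by pin tool came one day after lung cancer cell lines were seeded in 1536-well plates, using either one drug or a fixed anchor-drug dose plus five library-drug doses (not always all listed) in √10 steps. After 5 days, nuclei were counted on 4× images. Relative viability is treated-well nuclei count divided by vehicle-well nuclei count, and values are medians of duplicate plates.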

Zosuquidar + AZD7762 = compound: O[C@@H](COc1cccc2ncccc12)CN1CCN([C@@H]2c3ccccc3[C@@H]3[C@H](c4ccccc42)C3(F)F)CC1 [Zosuquidar] + NC(=O)Nc1cc(-c2cccc(F)c2)sc1C(=O)N[C@H]1CCCNC1 [AZD7762] (partner 0.2 µM)
Outline: as §1

Cabozantinib + Foretinib = compound: COc1cc2nccc(Oc3ccc(NC(=O)C4(C(=O)Nc5ccc(F)cc5)CC4)cc3)c2cc1OC [Cabozantinib] + COc1cc2c(Oc3ccc(NC(=O)C4(C(=O)Nc5ccc(F)cc5)CC4)cc3F)ccnc2cc1OCCCN1CCOCC1 [Foretinib] (partner 0.25 µM)
Outline: as §1

[1] = compound: COc1cc2nccc(Oc3ccc(NC(=O)C4(C(=O)Nc5ccc(F)cc5)CC4)cc3)c2cc1OC [Cabozantinib] + CCNC(=O)c1noc(-c2cc(C(C)C)c(O)cc2O)c1-c1ccc(CN2CCOCC2)cc1 [Luminespib] (partner 0.01 µM)
Outline: as §1

Row | Cell Line | relative viability (Kobe2602 + Foretinib; first compound 0.2 µM) | relative viability (Kobe2602 + Foretinib; first compound 0.6325 µM) | relative viability (Kobe2602 + Foretinib; first compound 2 µM) | relative viability (Kobe2602 + Foretinib; first compound 6.325 µM) | relative viability (Kobe2602 + Foretinib; first compound 20 µM) | relative viability (Zosuquidar + AZD7762; first compound 0.01 µM) | relative viability (Zosuquidar + AZD7762; first compound 0.03162 µM) | relative viability (Zosuquidar + AZD7762; first compound 0.3162 µM) | relative viability (Zosuquidar + AZD7762; first compound 1 µM) | relative viability (Cabozantinib + Foretinib; first compound 0.02 µM) | relative viability (Cabozantinib + Foretinib; first compound 0.06325 µM) | relative viability (Cabozantinib + Foretinib; first compound 0.2 µM) | relative viability (Cabozantinib + Foretinib; first compound 0.6325 µM) | relative viability (Cabozantinib + Foretinib; first compound 2 µM) | relative viability (Zosuquidar + AZD7762; first compound 0.1 µM) | relative viability ([1]; first compound 0.02 µM) | relative viability ([1]; first compound 0.06325 µM) | relative viability ([1]; first compound 0.2 µM) | relative viability ([1]; first compound 0.6325 µM) | relative viability ([1]; first compound 2 µM)
1 | NCI-H1703 | 0.404 | 0.349 | 0.4 | 0.321 | 0.329 | 0.0988 | 0.125 | 0.136 | 0.125 | 0.305 | 0.399 | 0.356 | 0.427 | 0.37 |  |  |  |  |  | 
2 | NCI-H1975 | 0.99 | 0.915 | 0.788 | 0.823 | 0.931 | 0.675 | 0.744 | 0.788 | 0.791 | 1.04 | 1.01 | 1.1 | 0.89 | 0.849 | 0.661 | 0.221 | 0.258 | 0.233 | 0.219 | 0.212
3 | NCI-H2023 | 0.931 | 0.803 | 0.825 | 0.931 | 0.933 |  |  |  |  | 0.917 | 1.2 | 1.05 | 0.956 | 0.896 |  | 0.839 | 0.68 | 0.635 | 0.641 | 0.539
4 | ChaGo-K-1 | 0.971 | 1.03 | 0.865 | 0.954 | 0.838 | 0.807 | 0.799 | 0.818 | 0.93 | 0.937 | 1.04 | 0.968 | 0.836 | 0.857 | 0.896 | 0.638 | 0.757 | 0.737 | 0.765 | 0.447
5 | COR-L 105 | 0.986 | 1.02 | 0.867 | 1.1 | 0.979 |  |  |  |  | 1.36 | 1.01 |  | 1.14 | 0.969 |  | 0.924 | 0.823 |  | 0.915 | 0.609
6 | SK-MES-1 | 0.922 | 0.99 | 0.918 | 0.99 | 0.898 |  |  |  |  | 0.936 | 1.1 | 0.948 | 1.09 | 0.802 |  | 0.835 | 1 | 0.9 | 0.875 | 0.729
7 | A549 | 0.955 | 0.991 | 0.908 | 0.924 | 0.958 |  |  |  |  | 1.09 | 1.17 | 0.964 | 0.909 | 0.942 |  |  |  |  |  | 
8 | NCI-H23 | 1.02 | 0.977 | 0.896 | 1.12 | 1 | 0.319 |  | 0.331 | 0.224 |  | 1.03 | 0.989 | 0.904 | 0.836 | 0.2 |  | 0.218 | 0.199 | 0.229 | 0.205
9 | NCI-H1993 | 0.789 | 0.748 | 0.689 | 0.687 | 0.642 | 0.692 | 0.781 | 0.858 | 0.908 | 0.807 | 0.74 | 0.649 | 0.745 | 0.735 |  | 0.787 | 0.738 | 0.667 | 0.828 | 0.73
10 | Calu-6 | 0.858 | 0.935 | 0.894 | 0.86 | 0.875 |  |  |  |  | 1.04 | 0.876 | 0.923 | 0.916 | 0.811 |  |  |  |  |  | 
11 | NCI-H1648 |  |  |  |  |  | 0.633 | 1.13 | 0.538 | 0.594 |  |  |  |  |  | 0.671 |  |  |  |  | 
